Test results as given in patent US5132291A, “Antivirals and methods for increasing the antiviral activity of AZT” (priority 1989, dated 1992).
Like-named read-outs stand apart in the source and are kept apart here.

Assays:
WI-L2 cells = assay: Lymphoblast assay, effects on cell growth, WI-L2 B-cell line; assay type: cell-based; details: AICA riboside alone, up to 500 μM
Protocol: Several lymphoblast lines were utilized in conjunction with varying doses of antiviral agents to determine their effects on cell growth. In this method a daily cell count over a period of time, post-addition of antiviral compounds, can be compared with the normal cell growth curve.
Two representative T-cell lines, SupT-1 and CEM, and a B-cell line, WI-L2, were grown to mid-log phase 5×10^5 cells/ml in 50 ml of RPMI 1640 (Irvine Scientific) supplemented with 10% heat-inactivated fetal calf serum (Gemini-Bioproducts) and 1% glutamine (Gibco) to standardize seeding conditions and to assure a population of logarithmically growing cells.
An appropriate number cf T-25 flasks (Corning) were seeded with evenly suspended cells at 0.5×10^5 cells/ml in 20 ml of fresh growth media. Including a control condition, each set of flasks was treated with a dose range of antiviral compound for each cell line. Each dose condition was repeated in triplicate. All flasks were incubated for 5 days at 37° C. in a 5% CO2 incubator.
Every 24 hours for 5 days, three 0.2 ml samples of each flask were diluted in 9.8 ml of isoton (Fisher Scientific) and counted on a cell counter (Coulter Co.). The average of each flask was recorded, and the average of each triplicate antiviral does was then averaged and recorded.

[1] = tested on: Chinese hamster lung fibroblasts; details: cited from earlier work
HIV = HIV syncitial forming assay using SupT-1 cells; assay type: cell-based; details: AICA riboside 5 μM-500 μM
Protocol: The assay was performed following the procedure described in Example Three except that SupT-1 cells were used. Using the SupT-1 cells, the medium was not changed at day 5 post-infection and the syncitia were counted at day 5 post-infection at 40X. The results are plotted in FIGS. 5, 6(b), and 7.

SAH hydrolase = SAH hydrolase inhibition; assay type: biochemical
Protocol: The effect of incubation time and AICA riboside concentration on SAH hydrolase activity was determined as follows. Five samples of SAH hydrolase were incubated at the following AICA riboside concentrations: 0, 10, 25, 50 and 100 μM. The incubation buffer consisted of 25 mM potassium phosphate pH 7.0, 1 mM EDTA, 1 mM, DTT and 0.04% BSA. The total enzyme added to incubation mixture was 10 μg. At indicated times, 10 μl of sample was withdrawn and assayed in the following assay system: 25 mM potassium phosphate, pH 7.0, 40 mM DL-Homocysteine, 1 mM EDTA, 1 mM DTT, 10 μM EHNA, 0.1% BSA and 10 μM U-^14 C Adenosine (590 m Ci/mmole). The reaction was stopped by adding 15 μl of 30% TCA. The samples were then centrifuged and 15 μl were removed and applied to Kodak cellulose 13254 TLC plates along with SAH and adenosine markers. The plates were then developed in a solvent system of 1-butanol:methanol:H2 O:ammonium hydroxide (60:20:20:2). The adenosine and S-adenosyl homocysteine were visualized under UV light and the spots were cut from the plate. Radioactivity of the spots was determined by liquid scintillation spectrometry. From a plot of the reciprocal of Kinactivation vs. 1/AICA riboside concentration the values of Ki (X-intercept) and Kmax (Y-intercept), were determined (FIG. 10(b)).

NC(=O)c1ncn([C@@H]2O[C@H](CO)[C@@H](O)[C@H]2O)c1N [AICA riboside, 5-amino-1-β-D-ribofuranosyl-imidazole-4-carboxamide]
effect on WI-L2 (B-cell) growth (WI-L2 cells): no effect | expansion of the purine pool (ATP and GTP) ([1]; 50 μM and 200 μM): about 40% | growth rate ([1]; 50 μM and 200 μM, reversible by uridine): reduced growth rate | drop in PRPP availability, measured by adenine incorporation ([1]; 50 μM): 18% | drop in PRPP availability, measured by adenine incorporation ([1]; 200 μM): 82% | effect on cell growth ([1]; 200 μM, reversed by uridine): arrested cell growth | cytotoxicity ([1]; 700 μM): no cytotoxicty | UTP and CTP pools [1]: decreased by a factor of approximately ten | effectiveness against the AIDS virus (prevention of syncitial formation) (HIV): less than 100% | inhibition of SAH hydrolase (SAH hydrolase): very potent inhibitors | inhibition of SAH hydrolase (SAH hydrolase; even at a concentration as low as 10 μM): potent inhibitors
